Experimental data published in patent publication US20100204109A1, “USE OF C-TYPE NATRIURETIC PEPTIDE, ALONE OR IN COMBINATION WITH NEUROPEPTIDE AF, AS A THERAPEUTIC AGENT” (priority 2007, published 2010).
Ends that are not written are not given here.

Columns and labels:
HCMV strain AD169 = assay: HCMV plaque formation assay in MRC-5 cells; conditions: for inhibition of HCMV plaque formation as compared to the virus control experiment: 10 micrograms per ml, MRC-5 cells, 7-10 days
[1] = system: hepatitis B virus (HBV) ayw strain; assay: HBV experimental assay system, HepG2-2.2.15, secreted HBV DNA by TaqMan PCR; type: cell-based; conditions: 10 micrograms per ml, six days, HBV DNA in supernatant
[2] = system: spleen cells of Ovalbumin-immunized Balb/c mice; assay: Th1/Th2 cytokine profiling assay; type: cell-based, mouse; conditions: 10 micrograms per ml; Ovalbumin restimulation; 72 hours supernatant
Text: Results from Th1/Th2 Cytokine assay:

HUVEC = assay: Endothelial tube formation assay; type: cell-based, human; conditions: 10 micrograms per ml, 20 hours, average tubule length
Text: Positive control was vehicle only. […] Raw data were expressed as average tubule lenghs in pixels±standard deviation.

Cc1cn([C@H]2C[C@H](N=[N+]=[N-])[C@@H](CO)O2)c(=O)[nH]c1=O [AZT]
antiviral activity of positive control compounds (HIV-1IIIB): expected levels of antiviral activity

Nc1nc(O)c2ncn(COC(CO)CO)c2n1 [Ganciclovir, reference compound]
antiviral activity of positive control compound (HCMV strain AD169; positive control, HCMV AD169 in MRC-5 cells): expected levels of antiviral activity

CC(C)(C)NC(=O)[C@@H]1CN(Cc2cccnc2)CCN1C[C@@H](O)C[C@@H](Cc1ccccc1)C(=O)N[C@H]1c2ccccc2C[C@H]1O [indinavir]
antiviral activity of positive control compounds (HIV-1IIIB): expected levels of antiviral activity

Ala-Gly-Glu-Gly-Leu-Asn-Ser-Gln-Phe-Trp-Ser-Leu-Ala-Ala-Pro-Gln-Arg-Phe-NH2 (AGEGLNSQFWSLAAPQRF-NH2) [Peptide 2]
inhibition of HBV replication as compared to the virus control infection [1]: 42.6%
IFNγ spleen cells; TH1 response (% of control) [2]: 84.8 % of control
IL-2 spleen cells (% of control) [2]: 0.0 % of control
IL-4 spleen cells; TH2 response (% of control) [2]: 0.0 % of control
IL-5 spleen cells; TH2 response (% of control) [2]: 52.2 % of control
TNF-a spleen cells; TH1 response (% of control) [2]: 92.1 % of control
inhibition of HCMV plaque formation as compared to the virus control experiment (HCMV strain AD169): did not inhibit
inhibition of the tube formation of human endothelial cells (HUVEC): did not inhibit

Asp-Leu-Arg-Val-Asp-Thr-Lys-Ser-Arg-Ala-Ala-Trp-Ala-Arg-Leu-Leu-Gln-Glu-His-Pro-Asn-Ala-Arg-Lys-Tyr-Lys-Gly-Ala-Asn-Lys-Lys-Gly-Leu-Ser-Lys-Gly-Cys-Phe-Gly-Leu-Lys-Leu-Asp-Arg-Ile-Gly-Ser-Met-Ser-Gly-Leu-Gly-Cys-OH (DLRVDTKSRAAWARLLQEHPNARKYKGANKKGLSKGCFGLKLDRIGSMSGLGC-OH; cysteine pairing not given here) [Peptide 1]
inhibition of HBV replication as compared to the virus control infection [1]: 65.7%
inhibition of HCMV plaque formation as compared to the virus control experiment (HCMV strain AD169): did not inhibit
inhibition of the tube formation of human endothelial cells (HUVEC): 34%
